From patent US5731326A, “PDGF antagonists II” (ZymoGenetics, Inc., priority 1996, dated 1998) come the findings set out here.

The structures appear in SMILES notation.

For one experiment, the system named is PDGF. Briefly: SRE-luciferase antagonist assay, induction by PDGF. The class given is cell-based. The settings on record: Swiss-3T3, SWISS3T3 cells, 5 hours, approximate. The text has this: (§1) Initial characterization of NNC92-0270 as a non-peptide PDGF antagonist was made possible through an SRE-Luciferase high through-put assay system which involves selection of substances that are able to block expression of a serum response element (SRE)-luciferase reporter gene expressed in SWISS3T3 cells. […] The degree of antagonist specificity can be determined by comparing the resultant signal for the three growth factors (PDGF, bFGF and EGF). […]
(§2) Following induction, luciferase activity was measured using a Promega luciferase assay kit (E1500; Promega Corp., Madison, Wis.) according to the assay kit protocol. […] The amount of luminescence (relative light units, RLU) was determined following a 1 second mix and a 1-3 integration of signal. Basal (uninduced) luciferase signal was subtracted from all measurements, and the luciferase signal induced by test samples was expressed as a percentage of the signal in the control. […]

For a further experiment, the system named is bFGF. The experiment in a line: SRE-luciferase antagonist assay, induction by bFGF. The class given is cell-based. The conditions noted are these: Swiss-3T3, SWISS3T3 cells, 5 hours, approximate.
From the text: as §1, §2

The next experiment concerns EGF. The experiment in a line: SRE-luciferase antagonist assay, induction by EGF. Format: cell-based. The conditions noted are these: SWISS3T3 cells, 5 hours.
From the text: as §1, §2

A further experiment deals with PMA. Briefly: SRE-luciferase antagonist assay, induction by PMA. Format: cell-based. The settings on record: Swiss-3T3, SWISS3T3 cells, 5 hours, approximate.
Experiment [1] has as its target T1, cell-surface PDGF receptors (Rattus norvegicus, UniProt Q05030).
T1 construct: endogenous in cells; host or cells: rat smooth muscle cells (SMCs), monolayer culture
Briefly: Inhibition of 125I-PDGF-BB binding to rat SMCs. The settings on record: for 125I PDGF-BB Bound (CPM): specific cpm, nonspecific subtracted, negative control 10006. How it is done: NNC92-0270 was analyzed for the ability to inhibit ^125 I-PDGF-BB binding to monolayers of rat SMCs. To assay for inhibition of ^125 I-PDGF-BB binding to rat SMCs, the SMCs were plated at approximately 20,000 cells/well in 24-well culture dishes. The cells were used for assay 2-7 days after plating. The test compound was diluted in binding media (500 ml Ham's F-12 (Gibco BRL), 12 ml 1M Hepes pH 7.4, 5 ml 100×PSN (Gibco BRL), 1 gm rabbit serum albumin (Sigma Chemical Co., St. Louis, Mo.) to the concentrations shown in Table 2, then added to the SMCs (1 ml/well) in triplicate. To the wells was then added 50 μl of a ^125 I-PDGF-BB stock solution. Binding media alone was used as the negative control, and the addition of 200 ng/ml of PDGF-BB was used to determine nonspecific binding for ^125 I-PDGF-BB. The cells were incubated for approximately 11/2 hours at 4° C., then washed with binding media to remove unbound ligand. The cells were then incubated with extraction buffer (20 mM Tris-HCl, pH 8.0, 100 mM NaCl, 1 mM EDTA, 0.5% Nonident P-40, 0.5% sodium deoxycholate, 10 mM NaI, 1% bovine serum albumin), and the extracts were harvested and counted in a gamma counter. The data are presented as specific cpm bound for ^125 I-PDGF-BB. Nonspecific binding, determined by the addition of 200 ng/ml of unlabeled PDGF-BB, was 853 cpm, and has been subtracted from the data presented.

T1 sequence (Q05030 32-1097): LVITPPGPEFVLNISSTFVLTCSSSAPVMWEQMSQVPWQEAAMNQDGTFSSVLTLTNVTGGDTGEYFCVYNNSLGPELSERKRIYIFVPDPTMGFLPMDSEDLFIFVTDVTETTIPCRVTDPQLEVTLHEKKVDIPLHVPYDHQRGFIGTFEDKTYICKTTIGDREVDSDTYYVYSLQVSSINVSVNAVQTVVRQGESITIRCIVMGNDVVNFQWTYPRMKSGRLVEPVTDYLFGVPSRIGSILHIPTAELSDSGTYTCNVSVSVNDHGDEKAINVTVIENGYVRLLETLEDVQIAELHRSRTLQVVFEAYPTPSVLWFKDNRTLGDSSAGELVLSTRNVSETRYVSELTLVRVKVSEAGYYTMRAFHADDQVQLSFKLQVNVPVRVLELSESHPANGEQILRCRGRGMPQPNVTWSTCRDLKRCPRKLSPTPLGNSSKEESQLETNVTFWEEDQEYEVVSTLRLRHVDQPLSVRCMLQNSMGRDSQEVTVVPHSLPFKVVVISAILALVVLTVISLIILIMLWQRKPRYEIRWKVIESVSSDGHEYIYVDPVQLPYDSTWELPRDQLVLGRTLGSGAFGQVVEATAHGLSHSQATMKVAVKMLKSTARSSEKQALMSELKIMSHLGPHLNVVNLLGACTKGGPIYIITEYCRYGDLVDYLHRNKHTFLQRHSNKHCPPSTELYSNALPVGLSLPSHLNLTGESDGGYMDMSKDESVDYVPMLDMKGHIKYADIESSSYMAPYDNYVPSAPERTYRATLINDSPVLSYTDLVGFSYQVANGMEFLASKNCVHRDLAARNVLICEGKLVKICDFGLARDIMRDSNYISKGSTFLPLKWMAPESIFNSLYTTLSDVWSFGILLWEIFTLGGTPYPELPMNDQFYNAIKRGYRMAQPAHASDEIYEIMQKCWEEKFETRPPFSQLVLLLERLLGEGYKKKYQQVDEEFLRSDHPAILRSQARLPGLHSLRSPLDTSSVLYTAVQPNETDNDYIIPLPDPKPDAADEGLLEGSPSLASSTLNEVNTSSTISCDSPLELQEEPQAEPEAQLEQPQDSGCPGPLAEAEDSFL

Turning to `O=C(NN1CCCCC1)NS(=O)(=O)c1ccc(CCNC(=O)c2[nH]c3ccccc3c2OCc2ccccc2)cc1` [NNC92-0270], the IC50 (usually the concentration that inhibits the measured activity by half) in the experiment on PDGF is 13 µM; in the experiment with bFGF, over 100 µM; in the experiment with PMA, over 100 µM. The “Induction of SRE-luciferase, EGF IC50” value with EGF is “No activity”. In addition, the “125I PDGF-BB Bound (CPM)” value was determined as 5228 CPM in experiment [1] (6.2 μM); 2823 CPM in experiment [1] (12.5 μM); 920 CPM in experiment [1] (25 μM); 532 CPM in experiment [1] (50 μM); 378 CPM in experiment [1] (100 μM). The remaining activity at 6.2 µM in experiment [1] (1.5 h, 6.2 μM, read-out: % Control Binding) is 52%. The remaining activity at 12.5 µM in experiment [1] (1.5 h, 12.5 μM, read-out: % Control Binding) was 28%. For the same compound, in experiment [1] (1.5 h, 25 μM, read-out: % Control Binding), the remaining activity at 25 µM amounted to 9%. The remaining activity at 50 µM in experiment [1] (1.5 h, 50 μM, read-out: % Control Binding) is 5%. The remaining activity at 100 µM in experiment [1] (1.5 h, 100 μM, read-out: % Control Binding) was found to be 4%. Further, the “Inhibition of PDGF-BB binding to cell-surface PDGF receptors (in words)” value in experiment [1] (rat SMCs) is given as “potent inhibitor”.
